According to US20110152166A1, “METHOD OF MODULATION OF PROTEIN PHOSPHORYLATION-DEPENDENT CONFORMATIONAL TRANSITIONS WITH LOW MOLECULAR WEIGHT COMPOUNDS” (priority 2006, published 2011):
Ends that are not written are not given here.

Tests used:
PDK1 = target: T1, PDK1 (Homo sapiens, UniProt O15530); conditions: in the presence of PIFtide (Biondi et al., 2000); cited from earlier work
T1 sequence (O15530 1-556): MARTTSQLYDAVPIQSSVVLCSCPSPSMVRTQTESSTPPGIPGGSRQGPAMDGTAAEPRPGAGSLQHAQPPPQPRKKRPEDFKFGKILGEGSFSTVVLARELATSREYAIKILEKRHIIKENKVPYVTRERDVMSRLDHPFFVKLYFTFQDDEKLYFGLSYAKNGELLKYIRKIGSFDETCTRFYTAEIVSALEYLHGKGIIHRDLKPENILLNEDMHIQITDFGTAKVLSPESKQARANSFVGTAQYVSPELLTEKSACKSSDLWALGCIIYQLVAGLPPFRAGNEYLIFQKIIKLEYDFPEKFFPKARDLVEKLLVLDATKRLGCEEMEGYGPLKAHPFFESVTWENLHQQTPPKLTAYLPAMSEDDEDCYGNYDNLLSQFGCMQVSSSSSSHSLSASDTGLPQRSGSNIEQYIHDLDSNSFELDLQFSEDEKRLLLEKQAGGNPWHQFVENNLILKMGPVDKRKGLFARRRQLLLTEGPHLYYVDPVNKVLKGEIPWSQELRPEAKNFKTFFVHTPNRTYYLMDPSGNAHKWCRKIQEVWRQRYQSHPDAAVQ

GST-S6K11-365 = GST-S6K11-365 (Rattus norvegicus, UniProt P67999); assay: Surface plasmon resonance, S6K1 binding to tail peptides; design: made in house; host or cells: COS cells (printed 'COST'), co-transfected with pCMV5-myc-PDK1
Chain of GST-S6K11-365 (P67999 24-388): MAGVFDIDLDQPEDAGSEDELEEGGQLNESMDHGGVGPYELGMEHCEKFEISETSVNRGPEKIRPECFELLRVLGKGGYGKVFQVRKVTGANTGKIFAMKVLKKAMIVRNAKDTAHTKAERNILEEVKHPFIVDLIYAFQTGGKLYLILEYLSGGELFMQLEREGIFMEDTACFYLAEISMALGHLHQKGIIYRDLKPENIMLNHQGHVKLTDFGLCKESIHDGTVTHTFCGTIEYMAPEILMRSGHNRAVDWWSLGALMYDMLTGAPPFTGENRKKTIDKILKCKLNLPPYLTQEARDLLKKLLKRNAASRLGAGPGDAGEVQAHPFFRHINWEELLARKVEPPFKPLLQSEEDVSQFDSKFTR
Description: FIG. 13. The tail phosphate synergistically enhances the ability of the HM phosphate to activate S6K, dependent on the tail phosphate-binding site. (A) The kinase activity of purified kinase domain of S6K1 (S6K11-364), pre-phosphorylated by PDK1 in the activation loop, was determined in the presence of increasing concentrations of synthetic S6K1 tail peptide (residues 366-395) that was either non-phosphorylated (S371/T389), phosphorylated at Ser371 (pS371/T389) or Thr389 (5371/pT389) or phosphorylated at both sites (pS371/pT389). (B) The kinase activity of S6K11-364 and S6K11-364K144N, either pre-phosphorylated or not by PDK1, was determined in the absence or presence of 90 μM S371/pT389 or pS371/pT389. (C) pS371/pT389 S6K1 tail peptide was biotinylated and used to coat streptavidin Sensor Chips. The chips were thereafter analyzed for binding to purified GST-S6K11-365 or GST-56K11-365K144N. (A-C) Experiments were repeated at least 3 times and activity data (expressed as percent) are means±SD.
Sixty 146 cm^2 dishes with COST cells were co-transfected with pEBG-2T-S6K1-365 and pCMV5-myc-PDK1 (ratio 3:1) using calcium phosphate precipitation or with pEBG-2T-PKCζ and pCMV5-myc-PDK1 (ratio 3:1) using Fugene HD according to the manufacturers Instructions. Two days after transfection, the cells were harvested in lysis buffer as described above. […]

Which “increase of PDK1 stability to temperature” value (PDK1) does the source give for “REPRILSEEEQEMFRDFDYIADWC [PIFtide, reference compound]” here?
Its value is 10 °C.

For “S371/T389: synthetic S6K1 tail peptide (residues 366-395), non-phosphorylated”, which “specific binding of S6K11-365 or S6K11-365K144N (in words)” value (GST-S6K11-365) is on record?
Its value is “No specific binding”.
